Source: US10577368B2 (The United States of America, as represented by the …, priority 2013, dated 2020)

Tests used:
hA1AR = hA1AR (Homo sapiens (Human), UniProt P30542); assay: Radioligand binding at hA1AR, CHO cell membranes, [3H]R-PIA; conditions: for inhibition at 10 µM: read-out: hA1AR % inhibition
hA2AAR = hA2AAR (Homo sapiens (Human), UniProt P29274); assay: Radioligand binding at hA2AAR, HEK293 cell membranes, [3H]CGS21680; conditions: for inhibition at 10 µM: read-out: hA2AAR % inhibition; for hA2AAR % inhibition: inhibition of binding at 10 μM
Sequence of hA2AAR (P29274 whole entry): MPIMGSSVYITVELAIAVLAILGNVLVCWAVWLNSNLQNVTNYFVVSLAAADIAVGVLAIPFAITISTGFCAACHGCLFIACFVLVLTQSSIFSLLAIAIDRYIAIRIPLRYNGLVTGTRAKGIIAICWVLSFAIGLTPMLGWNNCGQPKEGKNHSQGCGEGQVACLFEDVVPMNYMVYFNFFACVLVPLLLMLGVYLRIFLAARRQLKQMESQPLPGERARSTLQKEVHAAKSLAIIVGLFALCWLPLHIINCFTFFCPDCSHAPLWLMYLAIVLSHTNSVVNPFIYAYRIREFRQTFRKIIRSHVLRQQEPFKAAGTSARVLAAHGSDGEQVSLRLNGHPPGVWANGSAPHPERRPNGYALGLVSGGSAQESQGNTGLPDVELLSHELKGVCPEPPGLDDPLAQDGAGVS

[1] = test system: chronic constriction injury model of neuropathic pain; assay: CCI model of neuropathic pain, reversal of mechano-allodynia; format: in vivo, mice; conditions: for Time of peak protection / Max. effect Emax (% ± SEM): ipsilateral hind paw; for Efficacy in reversing NP in vivo (of full reversal at peak effect): CCI model

Sequence of hA1AR (P30542 whole entry): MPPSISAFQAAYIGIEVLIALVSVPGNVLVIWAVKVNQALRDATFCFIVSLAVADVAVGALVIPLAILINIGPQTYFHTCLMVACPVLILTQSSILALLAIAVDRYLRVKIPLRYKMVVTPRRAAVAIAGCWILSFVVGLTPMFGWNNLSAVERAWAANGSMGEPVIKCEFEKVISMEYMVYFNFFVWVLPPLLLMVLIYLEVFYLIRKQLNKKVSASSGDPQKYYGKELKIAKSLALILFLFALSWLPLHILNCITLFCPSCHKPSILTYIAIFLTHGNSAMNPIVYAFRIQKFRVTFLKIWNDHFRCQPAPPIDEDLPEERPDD

| SMILES | inhibition at 10 µM (hA1AR) | inhibition at 10 µM (hA2AAR) | Time of peak protection ([1]; 3 μmol/kg p.o., mice) | Efficacy in reversing NP in vivo (of full reversal at peak effect) [1] | further results |
| --- | --- | --- | --- | --- | --- |
| CNC(=O)[C@@]12C[C@@H]1[C@@H](n1cnc3c(NC)nc(C#Cc4cccnc4)nc31)[C@H](O)[C@@H]2O [Compound 15, (1S,2R,3S,4R,5S)-2,3-Dihydroxy-N-methyl-4-(6-(methylamino)-2-(pyridin-3-ylethynyl)-9H-purin-9-yl)bicyclo[3.1.0]hexane-1-carboxamide] | 16 ± 10% | 12 ± 6% | 0.5 to 2 h | low efficacy |  |
| CNC(=O)[C@@]12C[C@@H]1[C@@H](n1cnc3c(NC)nc(C#Cc4cccc(C(F)(F)F)c4)nc31)C(O)C2O (stereo in doubt) [Compound 14, (1 S,2S,3R,4R,5S)-2,3-Dihydroxy-N-methyl-4-(6-(methylamino)-2-((3-(trifluoromethyl)phenyl)ethynyl)-9H-purin-9-yl)bicyclo[3.1.0]hexane-1-carboxamide] | 10% | 12 ± 6% | 0.5 to 1 h |  |  |
| CNC(=O)[C@@]12C[C@@H]1[C@@H](n1cnc3c(NC)nc(C#Cc4cc5ccccc5o4)nc31)[C@H](O)[C@@H]2O [Compound 33, (1S,2R,3S,4R,5S)-4-(2-(Benzofuran-2-ylethynyl)-6-(methylamino)-9H-purin-9-yl)-2,3-dihydroxy-N-methylbicyclo[3.1.0]hexane-1-carboxamide] | 13% | 18 ± 3% | 1 h |  | Max. effect Emax (% ± SEM) ([1]; 3 μmol/kg p.o., mice): 87.4 ± 0.6% |
| CNC(=O)[C@@]12C[C@@H]1[C@@H](n1cnc3c(NC)nc(C#CC4CC4)nc31)[C@H](O)[C@@H]2O [Compound 20, (1S,2R,3S,4R,5S)-4-(2-(Cyclopropylethynyl)-6-(methylamino)-9H-purin-9-yl)-2,3-dihydroxy-N-methylbicyclo[3.1.0]hexane-1-carboxamide] | 38% | 15 ± 10% |  | 60-70% |  |
| CNC(=O)[C@@]12C[C@@H]1[C@@H](n1cnc3c(NC)nc(C#Cc4ccc(CO)cc4)nc31)[C@H](O)[C@@H]2O [Compound 31, (1S,2R,3S,4R,5S)-2,3-Dihydroxy-4-(2-((4-(hydroxymethyl)phenyl)ethynyl)-6-(methylamino)-9H-purin-9-yl)-N-methylbicyclo[3.1.0]hexane-1-carboxamide] | 16% | 11 ± 7% | 1 h |  |  |
| CNC(=O)[C@]12CC1[C@@H](n1cnc3c(NC)nc(C#Cc4ccccn4)nc31)[C@H](O)C2O (stereo partly shown) [Compound 401, reference compound] |  |  |  | low efficacy | hA1AR % inhibition (hA1AR; inhibition of binding at 10 μM): (13% ± 8%); hA2AAR % inhibition (hA2AAR): (13% ± 4%) |
| CNC(=O)[C@@]12C[C@@H]1[C@@H](n1cnc3c(NC)nc(C#Cc4cccnn4)nc31)[C@H](O)[C@@H]2O [Compound 10, (1S,2R,3S,4R,5S)-2,3-Dihydroxy-N-methyl-4-(6-(methylamino)-2-(pyridazin-3-ylethynyl)-9H-purin-9-yl)bicyclo[3.1.0]hexane-1-carboxamide] | 11% | 13 ± 8% | 0.5 h | less than full efficacy |  |
| CNC(=O)[C@]12CC1[C@@H](n1cnc3c(NCc4cccc(Cl)c4)nc(I)nc31)[C@H](O)C2O (stereo partly shown) [Compound 116] |  |  |  |  | Ki (hA2AAR): > 10 µM |
| CNC(=O)[C@]12CC1[C@@H](n1cnc3c(NC)nc(-n4cc(-c5ccc(F)c(F)c5)nn4)nc31)[C@H](O)C2O (stereo partly shown) [Compound 102] |  |  | 1 h |  | hA2AAR % inhibition (hA2AAR): 39 ± 4%; Effect at 3 h (% ± SEM) ([1]; 3 μmol/kg p.o., mice, 3 h): 8 ± 8%; Max. effect Emax (% ± SEM) ([1]; 3 μmol/kg p.o., mice): 55 ± 6% |
| CNC(=O)[C@@]12C[C@@H]1[C@@H](n1cnc3c(C)nc(C#Cc4ccc(C(C)(C)C)cc4)nc31)C(O)C2O (stereo in doubt) [Compound 41, (1S,2S,3R,4R,5S)-4-(2-((4-(tert-butyl)phenyl)ethynyl)-6-methyl-9H-purin-9-yl)-2,3-dihydroxy-N-methylbicyclo[3.1.0]hexane-1-carboxamide] | 15 ± 6% | 34 ± 7% |  |  |  |
